# US7671085B2, “Non-steroidal farnesoid X receptor modulators and methods for the use thereof” (The Salk Institute for Biological Studies, priority 2002, dated 2010)
# “Also recorded” adds a separate entry of the source.
# Target: T1, FXR (Homo sapiens, UniProt Q96RI1)
# T1 construct: using a full length FXR on a natural response element; expressed in transfected cells
# T1 sequence (Q96RI1 1-486): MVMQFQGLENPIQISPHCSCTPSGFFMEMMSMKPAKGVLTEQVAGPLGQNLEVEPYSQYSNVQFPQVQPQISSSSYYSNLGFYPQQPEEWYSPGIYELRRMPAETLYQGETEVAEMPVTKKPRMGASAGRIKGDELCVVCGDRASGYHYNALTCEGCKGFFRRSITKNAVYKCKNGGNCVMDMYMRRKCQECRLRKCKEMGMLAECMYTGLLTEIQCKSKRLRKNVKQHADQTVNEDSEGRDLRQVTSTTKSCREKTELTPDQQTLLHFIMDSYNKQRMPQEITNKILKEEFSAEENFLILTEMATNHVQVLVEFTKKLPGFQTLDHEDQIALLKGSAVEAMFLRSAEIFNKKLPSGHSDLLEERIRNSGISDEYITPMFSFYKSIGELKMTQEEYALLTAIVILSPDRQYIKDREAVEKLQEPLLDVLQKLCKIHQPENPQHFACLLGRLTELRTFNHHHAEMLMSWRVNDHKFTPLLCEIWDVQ
# Test: cell-based FXR transcription assay, FXR responsive promoter linked to luciferase reporter
# Details: for RE^a / EC50: cell-based FXR reporter assay; for RE^a: footnote a not given; for FXR activation, in words: cell-based reporter assay, SAR discussion; for EC50: determined with Prism 3.0
# Description: In addition to ensuring that only cell permeable compounds were selected for further optimization, this approach allows for the detection of FXR activation in a natural system (i.e., correct folding of the protein and in the presence of a complete compliment of co-activators and co-repressors).
# The feasibility of creating high throughput screens (HTS) for ORs was explored using FXR as a candidate orphan receptor (OR) with a known activator, chenodeoxycholic acid (CDCA) as a ligand. The screen is based on the co-transfection of a full-length receptor with the reporter vector containing a natural hormone response element under a minimal eukaryotic promoter. […] Using this 384-well format, the high throughput screening (HTS) approach to FXR as a candidate OR was employed. […] A central question in the feasibility studies is whether this library is suitable for screening for nuclear receptor ligands. Samples of this library were first reformatted into a 384-well format and then subjected to the FXR cell-based assays described above and assessed for FXR-mediated transcriptional activity. Cells were exposed to approximately 10 μM of sample for 18 hrs prior to washing and luciferase analysis.
# EC50 values were determined with Prism 3.0 software via the activity of the subject compound in the previously described cell based assay.
SMILES,RE^a,"FXR activation, in words",EC50 [nM]
COC(=O)/C=C/c1cccc(N(Cc2ccc(/C=C/c3cccc(C(F)(F)F)c3)cc2)C(=O)NC(C)C)c1 [Compound 188],0.31,,
COC(=O)C=Cc1cccc(N(Cc2ccc(C=Cc3c(F)cccc3F)cc2)C(=O)C2CCCCC2)c1 [Compound 189],0.94,excellent activity,
COC(=O)/C=C/c1cccc(N(Cc2ccc(/C=C/c3c(F)cccc3F)cc2)C(=O)C(C)C)c1 [Compound 190],0.79,excellent activity,108
COC(=O)/C=C/c1cccc(N(Cc2ccc(/C=C/c3c(F)cccc3F)cc2)C(=O)NC(C)C)c1 [Compound 191],0.21,,
COC(=O)C=Cc1cccc(N(Cc2ccc(C=Cc3ccccc3F)cc2)C(=O)C2CCCCC2)c1 [Compound 192],1.41,excellent activity; also recorded: among the most active,
COC(=O)/C=C/c1cccc(N(Cc2ccc(/C=C/c3ccccc3F)cc2)C(=O)C(C)C)c1 [Compound 193],1.17,excellent activity,
COC(=O)/C=C/c1cccc(N(Cc2ccc(/C=C/c3ccccc3F)cc2)C(=O)NC(C)C)c1 [Compound 194],0.69,,
COC(=O)C=Cc1cccc(N(Cc2ccc(C=Cc3c(C)cc(C)cc3C)cc2)C(=O)C2CCCCC2)c1 [Compound 195],0.24,among the least active,
COC(=O)/C=C/c1cccc(N(Cc2ccc(/C=C/c3c(C)cc(C)cc3C)cc2)C(=O)C(C)C)c1 [Compound 196],0.30,,
COC(=O)/C=C/c1cccc(N(Cc2ccc(/C=C/c3c(C)cc(C)cc3C)cc2)C(=O)NC(C)C)c1 [Compound 197],0.14,,
COC(=O)/C=C/c1cccc(N(Cc2ccc(/C=C/c3ccccc3)cc2)C(=O)C(C)C)c1 [Compound 198],1.33,excellent activity,
COC(=O)/C=C/c1cccc(N(Cc2ccc(/C=C/c3ccccc3)cc2)C(=O)NC(C)C)c1 [Compound 200],1.38,,
COC(=O)C=Cc1cccc(N(Cc2ccc(C=Cc3cccc(F)c3)cc2)C(=O)C2CCCCC2)c1 [Compound 201],1.36,excellent activity; also recorded: among the most active,
COC(=O)/C=C/c1cccc(N(Cc2ccc(/C=C/c3cccc(F)c3)cc2)C(=O)C(C)C)c1 [Compound 202],1.33,excellent activity,
COC(=O)/C=C/c1cccc(N(Cc2ccc(/C=C/c3cccc(F)c3)cc2)C(=O)NC(C)C)c1 [Compound 203],0.61,,
COC(=O)C=Cc1cccc(N(Cc2ccc(C=Cc3ccc(F)cc3)cc2)C(=O)C2CCCCC2)c1 [Compound 204],0.53,excellent activity; also recorded: among the most active,
COC(=O)/C=C/c1cccc(N(Cc2ccc(/C=C/c3ccc(F)cc3)cc2)C(=O)C(C)C)c1 [Compound 205],1.19,excellent activity,120
COC(=O)/C=C/c1cccc(N(Cc2ccc(/C=C/c3ccc(F)cc3)cc2)C(=O)NC(C)C)c1 [Compound 206],0.91,,
COC(=O)C=Cc1cccc(N(Cc2ccc(C=Cc3ccccn3)cc2)C(=O)C2CCCCC2)c1 [Compound 207],0.81,,
COC(=O)C=Cc1cccc(N(Cc2ccc(C=Cc3ccccn3)cc2)C(=O)C(C)C)c1 [Compound 208],0.62,,
COC(=O)C=Cc1cccc(N(Cc2ccc(C=Cc3ccccn3)cc2)C(=O)NC(C)C)c1 [Compound 209],0.68,,
COC(=O)C=Cc1cccc(N(Cc2ccc(C=Cc3scnc3C)cc2)C(=O)C2CCCCC2)c1 [Compound 210],0.53,,
COC(=O)C=Cc1cccc(N(Cc2ccc(C=Cc3scnc3C)cc2)C(=O)C(C)C)c1 [Compound 211],0.32,,

SMILES,RE^a,"FXR activation, in words",EC50 [nM]
COC(=O)C=Cc1cccc(N(Cc2ccc(C=Cc3scnc3C)cc2)C(=O)NC(C)C)c1 [Compound 212],0.42,,
COC(=O)/C=C/c1cccc(N(Cc2ccc(-c3ccc(F)c(F)c3)cc2)C(=O)C2CCCCC2)c1 [Compound 213],1.70,excellent activity,
COC(=O)/C=C/c1cccc(N(Cc2ccc(-c3ccc(F)c(F)c3)cc2)C(=O)C(C)C)c1 [Compound 214],1.15,,
COC(=O)/C=C/c1cccc(N(Cc2ccc(-c3ccc(F)c(F)c3)cc2)C(=O)NC(C)C)c1 [Compound 215],0.23,,
COC(=O)/C=C/c1cccc(N(Cc2ccc(-c3ccc(SC)cc3)cc2)C(=O)C(C)C)c1 [Compound 216],0.98,excellent activity,
COC(=O)/C=C/c1cccc(N(Cc2ccc(-c3ccc(SC)cc3)cc2)C(=O)NC(C)C)c1 [Compound 217],0.23,,
COC(=O)/C=C/c1cccc(N(Cc2ccc(-c3ccccc3OC)cc2)C(=O)C2CCCCC2)c1 [Compound 218],0.49,,359
COC(=O)/C=C/c1cccc(N(Cc2ccc(-c3ccccc3OC)cc2)C(=O)C(C)C)c1 [Compound 219],0.28,,
COC(=O)/C=C/c1cccc(N(Cc2ccc(-c3ccccc3OC)cc2)C(=O)NC(C)C)c1 [Compound 220],0.09,,
COC(=O)/C=C/c1cccc(N(Cc2ccc(-c3cc(Cl)cc(Cl)c3)cc2)C(=O)C(C)C)c1 [Compound 221],0.54,,661
COC(=O)/C=C/c1cccc(N(Cc2ccc(-c3cc(Cl)cc(Cl)c3)cc2)C(=O)NC(C)C)c1 [Compound 222],0.10,,< 10000
COC(=O)/C=C/c1cccc(N(Cc2ccc(-c3cccc(OC)c3)cc2)C(=O)C2CCCCC2)c1 [Compound 223],1.51,,
COC(=O)/C=C/c1cccc(N(Cc2ccc(-c3cccc(OC)c3)cc2)C(=O)C(C)C)c1 [Compound 224],1.28,excellent activity,
COC(=O)/C=C/c1cccc(N(Cc2ccc(-c3cccc(OC)c3)cc2)C(=O)NC(C)C)c1 [Compound 225],0.41,,
CCOc1cccc(-c2ccc(CN(C(=O)C3CCCCC3)c3cccc(/C=C/C(=O)OC)c3)cc2)c1 [Compound 226],1.37,,
CCOc1cccc(-c2ccc(CN(C(=O)C(C)C)c3cccc(/C=C/C(=O)OC)c3)cc2)c1 [Compound 227],1.03,,
CCOc1cccc(-c2ccc(CN(C(=O)NC(C)C)c3cccc(/C=C/C(=O)OC)c3)cc2)c1 [Compound 228],0.33,,
COC(=O)/C=C/c1cccc(N(Cc2ccc(-c3ccc(OC)cc3)cc2)C(=O)C2CCCCC2)c1 [Compound 229],1.71,excellent activity,
COC(=O)/C=C/c1cccc(N(Cc2ccc(-c3ccc(OC)cc3)cc2)C(=O)C(C)C)c1 [Compound 230],1.21,excellent activity,
COC(=O)/C=C/c1cccc(N(Cc2ccc(-c3ccc(OC)cc3)cc2)C(=O)NC(C)C)c1 [Compound 231],1.18,,
COC(=O)/C=C/c1cccc(N(Cc2ccc(-c3cccc(Cl)c3)cc2)C(=O)C2CCCCC2)c1 [Compound 232],1.56,excellent activity,
COC(=O)/C=C/c1cccc(N(Cc2ccc(-c3cccc(Cl)c3)cc2)C(=O)C(C)C)c1 [Compound 233],1.52,excellent activity,77
COC(=O)/C=C/c1cccc(N(Cc2ccc(-c3cccc(Cl)c3)cc2)C(=O)NC(C)C)c1 [Compound 234],0.49,,
